Measured values from patent US20220273617A1, “ANTI-CANCER, ANTI-INFLAMMATORY AND IMMUNOMODULATORY ACTIVITY OF R-CARVEDILOL AND METHODS OF USE” (priority 2021, published 2022).
“Also recorded” adds a separate entry of the source.

How the values were obtained:
JB6 [1] = experiment: EGF-induced JB6 transformation; type: cell-based, mouse
[2] = tested on: B(a)P-induced lung toxicity; experiment: Short term single dose B(a)P-induced lung toxicity in mice; type: in vivo, CD1/IGS mice; conditions: for plasma LDH levels / plasma MDA levels (LPO): B(a)P 125 mg/kg on day 7; for protection against B(a)P-induced histological changes and COX-2 expression: oral, compared with racemic carvedilol
Source text: Chronic exposure to carcinogens that are present in tobacco smoking or air pollution is a well-known cause of lung cancer. One of the most important strategies to manage lung cancer is chemoprevention, which uses synthetic or natural products to block or reverse lung cancer initiation, promotion, and progression. Benzo(a)pyrene (B(a)P), a polycyclic aromatic hydrocarbon, is a pro-carcinogen ubiquitously present as pollutants in the environment. It is mostly produced during cigarette smoking and is present in automobile exhausts, and causes lung toxicity and lung cancer after metabolic activation. A single dose B(a)P-induced lung toxicity study in mice was used to evaluate the protective effects of carvedilol. In male CD1/IGS mice, carvedilol was orally administered (20 mg/kg body weight) once a day for 7 days. The mice were then treated with a single dose B(a)P via oral gavage (125 mg/kg body weight) on day 7, 30 min after the drug treatment. Mice were sacrificed 24 hours after B(a)P treatment. As expected, B(a)P increased the plasma levels of lactate dehydrogenase (LDH) and Malondialdehyde (MDA) for lipid peroxides (LPO).

B(a)P-induced lung tumor = experiment: Long term B(a)P-induced lung carcinogenesis in A/J mice; type: in vivo; conditions: for tumor incidence: B(a)P only 100%
Procedure: To examine the chemopreventive efficacy of carvedilol, we used an established lung carcinogenesis model in A/J mice induced by B(a)P. Two drug doses were examined: 20 mg/kg (H) and 3.2 mg/kg (L). The mice were randomly divided by body weight into seven groups at the beginning of the experiments. To induce lung tumor, mice were given a single intraperitoneal (i.p.) injection of B(a)P at 100 mg/kg body weight in 0.2 ml tricaprylin. The following are treatment groups: (1) vehicle control, n=8; (2) B(a)P only, n=9; (3) B(a)P+gefitinib 400 mg/kg, weekly oral gavage, positive control, n=10; (4) B(a)P+carvedilol 20 mg/kg drinking water, n=9; (5) B(a)P+carvedilol 3.2 mg/kg drinking water, n=8; (6) B(a)P+R-carvedilol 20 mg/kg drinking water, n=9; (7) B(a)P+R-carvedilol 3.2 mg/kg drinking water, n=10. The mice began the drug treatments 3 weeks before B(a)P treatment and terminated at 23 weeks after B(a)P treatment. […] Tumor multiplicity was determined by counting surface tumors in fixed lung under a dissecting microscope. […] The tumor incidence for gefitinib group was 70%. The tumor incidence was 89% and 50% for high and low dose carvedilol, respectively. The tumor incidence was 67% and 70% for high and low dose R-carvedilol, respectively.

[3] = tested on: UV-induced immunosuppression; experiment: UV-induced suppression of contact hypersensitivity (CHS) to DNFB; type: in vivo, SKH-1 hairless mice; conditions: single dose i.p. 2 h before UV 224 mJ/cm^2; carvedilol 1 and 10 mg/kg, R-carvedilol 10 mg/kg
Procedure: Mice were treated with NS398, CAR or R-CAR (L: 1 mg/kg; H: 10 mg/kg) i.p. 2 hr before UV exposure (224 mJ/cm^2). 24 h after, mice were sensitized with DNFB on back. After 7 days, the right ears were challenged with DNFB. 24 h after, 5 mm punch biopsies were obtained from both ears and weighed. The data are the mean±SE difference in ear biopsy weights (right-left) from n=5 mice (male). *: P<0.05; **: P<0.01.
The data listed are the mean±SE difference in ear biopsy weights (Right-Left) from n=5 mice (male). *: P<0.05; **:P<0.01.
Immunosuppression induced by UV radiation is commonly investigated using the contact hypersensitivity (CHS) response to contact allergens such as the hapten dinitrofluorobenzene (DNFB). […] Thus, carvedilol's skin cancer preventive activity may be partly attributed to its inhibitory effects on UV-induced immunosuppression.
The mice were pretreated with single dose of R-carvedilol (10 mg/kg, i.p.) two hours before UV radiation, and were subject to UV exposure. […] Thus, R-carvedilol, although not a β-blocker, similarly reverses UV-induced immunosuppression.
CHS assay was used to evaluate the effects of a topical delivery system of carvedilol developed by us, named “T-CAR”, on UV-induced immunosuppression. […]

[4] = R-carvedilol alone, healthy human volunteers; cited from earlier work
[5] = Plasma concentration in mice given drug in drinking water; type: in vivo; conditions: 178 μg/mL in drinking water (32 mg/kg/day), 2 weeks, 95% CI in brackets
[6] = In vitro penetration and skin retention, Franz diffusion cells and porcine ear skin; type: in vitro ADME; conditions: Franz diffusion cells, porcine ear skin; free drug in water or PEG 400
Source text: Thus, topical route has been investigated as a major approach in the application of R-carvedilol for clinical skin cancer prevention. In order to prepare for clinical studies, we prepared three types of transfersome-based formulation for R-carvedilol using different amount of phospholipid (soy phosphatidylcholine, SPC) or edge activator (tween-80). The particle sizes, zeta potential, encapsulation efficiency and stability for these transfersomes were very similar to those of T-CAR. […] This confirms that nano-transfersomes provide a promising delivery system for both carvedilol and R-carvedilol. Thus, this selected transfersomal formulation for R-carvedilol, named “T-RCAR”, will be further characterized in preclinical model systems and examined in clinical trials in the future.

[7] = Systolic blood pressure of mice, noninvasive tail-cuff system; type: in vivo; conditions: 32 mg/kg/day
Procedure: SKH-1 mice were given racemic carvedilol or R-carvedilol in drinking water for two weeks (32 mg/kg/day). Blood pressure was examined in mice utilizing a Kent CODATM noninvasive tail-cuff system.

[8] = oral 1.6 mg/kg, mice; cited from earlier work
[9] = tested on: UV induced skin carcinogenesis; experiment: Chronic UV induced skin carcinogenesis model; type: in vivo, mice; conditions: for delay in tumor formation compared to UV only controls: topical, chronic UV
4T1 = experiment: Triple negative breast tumor 4T1 in BalB/C mice; type: in vivo; conditions: for tumor growth: 20 mg/kg/day in drinking water from two weeks before inoculation, monotherapy; for efficacy in combination with anti-PD-1 therapy: same 4T1 model, combined with anti-PD-1
Procedure: To investigate the effect of carvedilol and R-carvedilol on breast cancer growth, the BalB/C mice were treated with the drugs (20 mg/kg/day) in drinking water for two weeks before the mice were inoculated with murine triple negative breast tumor 4T1 in the fourth left mammary fat pad. […] The same experimental model was treated with carvedilol or R-carvedilol, in combination with the anti-PD-1 therapy.

[10] = Ex vivo permeation across rat skin, Franz diffusion cells; type: in vitro ADME; conditions: for permeation: rat, 200 μg/mL
Procedure: Instead of nanoparticle-based topical delivery, the present inventors have explored other methods of skin delivery of drugs. They investigated the effects of natural penetration enhancers on the ex vivo permeation of carvedilol across rat skin. […] The drug formulations containing carvedilol or R-carvedilol (200 μg/mL) (1 mL) was loaded on Franz diffusion cells using excised rat dorsal skin (with hair removed). […] D-limonene is isolated from orange peel, and is a cheap and safe option to delivery carvedilol (same for R-carvedilol) for skin cancer prevention. D-limonene is present in many skin commercial products such as perfumes and essential oils. Therefore, this invention provides another novel approach of making skin targeting formulation for both carvedilol and R-carvedilol. This approach of making skin formulation is not only safe but also easier to scale up to industry level for making large amount.

[11] = tested on: UV induced skin damage and inflammation; experiment: Acute UV induced skin damage and inflammation model; type: in vivo, mouse; conditions: topical 0.1, 1 or 10 μM in acetone immediately after single UV 300 mJ/cm^2
Procedure: In an acute UV induced skin damage and inflammation model induced with a single dose of UV (300 mJ/cm^2), topical treatment with R-carvedilol (0.1, 1 or 10 μM in acetone as a vehicle), applied immediately after the UV, attenuated mouse skin edema and reduced epidermal thickening, Ki-67 staining, COX-2 protein, IL-6 and IL-10 mRNA levels.

JB6 [12] = conditions: among 16 β-blockers examined (Cleveland K H, 2019); cited from earlier work
B16-F10 tumor = B16-F10 tumor bearing C57BL/6 mice; type: in vivo; conditions: topical daily
Procedure: Comparison of the efficacy of free drug and T-CAR (day 14). One day after tumor inoculation (two tumors per mouse, mice received free drug or T-CAR daily.
One day after tumor inoculation (one per mouse), mice received free drug or T-CAR daily, 200 μg RMP1-14 twice a week, or combination.
A: group 1, control; B: group 4, T-CAR+RMP1-14. Tumor collected at day 20 after inoculation.
Tumor collected at day 20 after inoculation.
The carvedilol loaded transfersome, T-CAR, was evaluated in vitro and in vivo on melanoma growth. […] To examine the in vivo activity of T-CAR, in C57BL/6 mice bearing the B16-F10 tumor, the T-CAR gel as a topical monotherapy was examined. The efficacy of T-CAR was compared with free drug dissolved in acetone in male mice bearing B16-F10 (two tumors inoculated in each mouse). […] Second study examined efficacy of topical T-CAR combined with anti-PD-1 (RMP1-14, 200 μg per mouse, i.p. twice per week) (one tumor was inoculated in each mouse).

[13] = orally administered; cited from earlier work
[14] = oral 20 mg/kg once a day for 7 days
[15] = high dose 20 mg/kg drinking water
[16] = low dose 3.2 mg/kg drinking water

Compound: COc1ccccc1OCCNC[C@H](O)COc1cccc2[nH]c3ccccc3c12 [S-carvedilol]
- inhibitory effects on EGF-induced JB6 transformation (JB6 [1]): nearly identical inhibitory effects
- plasma LDH levels [2, 14]: significantly attenuated
- plasma MDA levels (LPO) [2, 14]: significantly attenuated
- protection against B(a)P-induced histological changes and COX-2 expression [2]: same degree of protection as the racemic carvedilol

Compound: COc1cc2ncnc(Nc3ccc(F)c(Cl)c3)c2cc1OCCCN1CCOCC1 [gefitinib]
- tumor incidence (B(a)P-induced lung tumor; 400 mg/kg weekly oral gavage, positive control): 70%

Compound: COc1ccccc1OCCNC[C@@H](O)COc1cccc2[nH]c3ccccc3c12 [R-carvedilol]
- UV-induced CHS suppression [3]: reversed UV-induced suppression of CHS; also recorded: significantly reversed UV-induced CHS suppression
- tumor inhibition (B(a)P-induced lung tumor; 20 and 3.2 mg/kg drinking water): same trend of tumor inhibition as carvedilol
- tumor incidence (B(a)P-induced lung tumor; [15]): 67%
- tumor incidence (B(a)P-induced lung tumor; [16]): 70%
- adverse effects [4]: without major adverse effects
- mean plasma concentration [5]: 25.13 ng/mL
- skin permeation [6]: very little
- skin retention [6]: very little
- mean systolic blood pressure ([7]; drinking water, 2 weeks, male SKH-1 mice): did not alter blood pressure
- heart rate or blood pressure [8]: did not alter heart rate or blood pressure
- skin tumor development ([9]; topical 10 μM in acetone 30 min before UV): strongly inhibited skin tumor development
- delay in tumor formation compared to UV only controls [9]: 5 week
- inhibitory effects on EGF-induced JB6 transformation (JB6 [1]): nearly identical inhibitory effects
- plasma LDH levels [2, 14]: significantly attenuated
- plasma MDA levels (LPO) [2, 14]: significantly attenuated
- protection against B(a)P-induced histological changes and COX-2 expression [2]: same degree of protection as the racemic carvedilol
- tumor growth (4T1): significantly reduced
- efficacy in combination with anti-PD-1 therapy (4T1): enhanced the efficacy of anti-PD-1 monotherapy
- skin permeation ([10]; control formulation: PBS pH 7.4 with 40% v/v PEG 400): minimal
- COX-2 protein [11]: reduced
- IL-6 mRNA levels [11]: reduced
- IL-10 mRNA levels [11]: reduced
- Ki-67 staining [11]: reduced
- epidermal thickening [11]: reduced
- mouse skin edema [11]: attenuated

Compound: COc1ccccc1OCCNCC(O)COc1cccc2[nH]c3ccccc3c12 (racemic) [carvedilol]
- potency in preventing EGF-induced neoplastic transformation of mouse epidermal cells (JB6 [12]): highest potency
- tumor inhibition (total tumor volume) (B16-F10 tumor; 10 μM, day 14, two tumors per mouse, male mice): trend of tumor inhibition
- tumor inhibition (total tumor volume) (B16-F10 tumor; free drug in acetone 100 μM (CAR H), day 14): less effective
- UV-induced CHS suppression [3]: reversed UV-induced suppression of CHS
- tumor incidence (B(a)P-induced lung tumor; [15]): 89%
- tumor incidence (B(a)P-induced lung tumor; [16]): 50%
- tumor multiplicity (B(a)P-induced lung tumor; lower dose 3.2 mg/kg drinking water): significantly attenuated
- mean systolic blood pressure ([7]; mouse, in vivo): statistically reduced mean systolic blood pressure
- bioavailability [13]: 24%
- delay in tumor formation compared to UV only controls [9]: 3 week
- B(a)P-induced expression of COX-2 in lung (IHC) [2, 14]: attenuated
- plasma LDH levels [2, 14]: significantly attenuated
- plasma MDA levels (LPO) [2, 14]: significantly attenuated
- B(a)P-induced lung morphological changes (histology) ([2]; oral 20 mg/kg once a day for 7 days, H&E): reduction in these morphological changes
- tumor growth (4T1): significantly reduced
- efficacy in combination with anti-PD-1 therapy (4T1): enhanced the efficacy of anti-PD-1 monotherapy
- permeation [10]: 1.6 ± 0.25 µg
- permeation ([10]; pH 7.4): 0.430 /−0.07 μg
